According to patent publication US12599560B2, “Lipids and lipid nanoparticle formulations” (Longuide Biopharma Corporation, priority 2023, dated 2026):

Assays:
[1] = Particle size and PDI by dynamic light scattering; assay type: physicochemical; conditions: Table 2; for Particle size (nm): LNP formulation with mRNA; for PDI: polydispersity value
Procedure, shortened: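 Lipid nanoparticle solution (about 0.04 mg/mL mRNA) diluted in ultrapure water and particle size measured by dynamic light scattering on a Malvern instrument. Sample then further diluted with water for potential measurement.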

Delta-S protein = assay: In vivo immunization with Delta Spike mRNA LNP, serum ELISA for specific antibody; set-up: species or system mice; conditions: serum after second administration; IM
Method: Lipid nanoparticles encapsulating the nucleic acid drugs were prepared according to step 2. The mRNA was replaced with Delta Spike full length mRNA (Shanghai Zhaowei Science and Technology Development Co., Ltd.) and then administered to the mice at a dose of 5 μg per mouse, and on the 14th day after the first immunization, the whole blood of the mice was collected by canthus sampling, and the drug administration was repeated for the second immunization. On the 14th day after the second immunization, the whole blood was collected from mice by canthus sampling. The whole blood was centrifuged at 5000 rcf for 5 mn, and the supernatant was centrifuged at 10000 rcf for 5 min to obtain the serum, which was aliquated into serial tubes and stored in the refrigerator at −20° C.
• 9.2.1 Coating: Add 100 μL of 0.2 μg/100 μL Delta-S protein (Novoprotein Scientific Inc.) dilution solution to each well, and leave it in the refrigerator at 4° C. overnight. • 9.2.2 Washing: Add 200 μL of PBST (PBS buffer solution containing 0.05% Tween-20 at pH 7.4) to each well and wash three times. • 9.2.3 Blocking: Add 200 μL of 5% (w/v) BSA-PBS solution (BSA bovine serum albumin, Bioss Biotechnology Co., Ltd.) to each well, and shake for 2 h at 50 rcf at room temperature using a shaker. • 9.2.4 Washing: Add 200 μL of PBST to each well to wash once. • 9.2.5 Adding samples: Add 100 μL of serum diluted 200 times with PBS (0.5 μL of serum) to each well (for the ELISA titer assay, serum diluted 200 times, 800 times, 3200 times, 12800 times, 51200 times, 204800 times), and shake at room temperature for 2 h at 50 rcf using a shaker. • 9.2.6 Washing: Add 200 μL of PBST into each well for three times. • 9.2.7 Adding detection antibody: Add 100 μL of HRP-labeled goat anti-mouse IgG detection antibody (0.1 μL of antibody master batch) (Sangon Biotech (Shanghai) Co., Ltd.) diluted 1000-fold into each well, and shake at 50 rcf for 1 h at room temperature using a shaker. • 9.2.8 Washing: Add 200 μL of PBST to each well and wash three times. • 9.2.9 Adding TMB (Beijing Solarbio Science & Technology Co., Ltd.): Add 50 μL of TMB mixture with the volume ratio of liquid A:liquid B of 1:1 to each well, and react for 5 mn (ELISA of blood sample I), 7 min 58 sec (ELISA of blood sample II), and react for about 5 min (ELISA titer of blood sample II). • 9.2.10 Adding phosphate (Aladdin Reagent (Shanghai) Co., Ltd.): add 50 μL of 1 mol/L phosphate per well to terminate the reaction. • 9.2.11 Detection: Use multi-function plate reader for detection. 9.3. Neutralization Antibody Levels Detected by Pseudovirus Neutralization Assay • 9.3.1 Cell seeding: 293T-ACE2 cells (Fubio (Suzhou) Biomedical Technology Co., Ltd.) were inoculated with 1×10^5 cells in each well of a 48-well plate at a concentration of 1×10^5 cells in 300 μL of DMEM medium (containing 10% heat-inactivated FBS without bispecific antibody), the 48-well plate was labeled with information such as “number, cell type, number of generations, medium type, date and name”, and then the cells were cultured in a cell culture incubator at 37° C. with 5% CO2 for 18 hours. • 9.3.2 Before the pseudovirus transfection operation, prepare an ice box, re-dissolve the serum to be used on ice, thaw on ice the virus from the −25° C. refrigerator. After thawing, the serum and pseudovirus were flicked homogenously and centrifuged with a palm centrifuge. • 9.3.3 Examine the neutralization antibody with serum diluted in different ratios: use complete culture medium to dilute the pseudovirus (Fubio (Suzhou) Biomedical Technology Co., Ltd.) and mouse serum respectively, mix them well, and then dilute them 40-fold, 100-fold, 250-fold and 625-fold according to the final concentration of the cells of incubation. […]

mice = assay: In vivo delivery of FLuc-mRNA lipid nanoparticle preparations in mice (IVIS imaging); conditions: Table 2
Procedure, shortened: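 FLuc-mRNA LNPs given intramuscularly into thigh rectus femoris or intravenously via tail vein, about 75 μL per mouse, 3 mice. D-Luciferin (200 μL, 15 mg/mL) injected i.p. 10–15 min before IVIS imaging at set times after dosing.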

[2] = molar ratio 1.50:4.00:59.50:35.00, N/P 65
[3] = molar ratio 1.77:14.07:49.16:35.00, N/P 54
[4] = molar ratio 1.77:14.07:59.16:25.00, N/P 52

With `CCCCCCOCOCCCCCCOC(=O)C(O)CN(CCCN1CCN(CCCN(CC(O)C(=O)OCCCCCCOCOCCCCCC)CC(O)C(=O)OCCCCCCOCOCCCCCC)CC1)CC(O)C(=O)OCCCCCCOCOCCCCCC` (stereo not drawn) [Compound L0192] as the compound, how does the “Particle size (nm)” value [1, 2] read?
Its value is 112.83 ± 0.31 nm.

What about the “Particle size (nm)” value [1, 3] of the same compound?
Its value is 96.59 ± 0.78 nm.

What about the “Particle size (nm)” value [1, 4] of the same compound?
Its value is 113.33 ± 1.07 nm.

What about the PDI [1, 2] of the same compound?
Its PDI is 0.15 ± 0.01.

What about the PDI [1, 3] of the same compound?
Its PDI is 0.08 ± 0.02.

What about the PDI [1, 4] of the same compound?
Its PDI is 0.11 ± 0.02.

And the “OD 450 nm-630 nm” value (Delta-S protein)?
Its value is 1.68.

What about the “In vivo IVIS” value (mice; IV, whole body scan, molar ratio DMG-PEG2000:DSPC:Chol:Lipid and N/P) of the same compound?
Its value is 5.56 × 10^10.

What about the “in vivo delivery efficiency as compared to the benchmark compound SM102” value (mice; certain formulations) of the same compound?
The value was “superior in vivo delivery efficiency”.
